Laboratory results from patent US8119661B2, “Piperidine derivatives and their use as muscarinic receptor modulators” (AstraZeneca AB, priority 2007, dated 2012).

How the values were obtained:
[1] = target: T1, hM1 (human Muscarinic receptor subtype 1) (Homo sapiens, UniProt P11229); assay: Human M1 calcium mobilization FLIPR assay; assay type: cell-based; details: CHO cells expressing hM1, intracellular Ca2+ release
T1 construct: expressed in transfected cells; host or cells: CHO cells (Chinese hamster ovary cells, ATCC)
T1 sequence (P11229 1-460): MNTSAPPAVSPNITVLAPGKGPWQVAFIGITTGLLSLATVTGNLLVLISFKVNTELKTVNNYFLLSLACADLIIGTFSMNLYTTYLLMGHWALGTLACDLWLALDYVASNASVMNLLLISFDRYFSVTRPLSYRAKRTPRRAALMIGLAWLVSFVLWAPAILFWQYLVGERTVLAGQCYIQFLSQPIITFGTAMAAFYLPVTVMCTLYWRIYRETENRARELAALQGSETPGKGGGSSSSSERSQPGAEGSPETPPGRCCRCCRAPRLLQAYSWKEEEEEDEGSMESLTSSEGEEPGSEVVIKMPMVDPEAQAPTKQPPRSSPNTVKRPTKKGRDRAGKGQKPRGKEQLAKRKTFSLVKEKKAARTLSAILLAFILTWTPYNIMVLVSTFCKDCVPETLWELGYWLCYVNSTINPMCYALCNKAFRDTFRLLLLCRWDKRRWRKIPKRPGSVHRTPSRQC
Description: (§1) The compound activity in the present invention (EC50 or IC50) is measured using a 384 plate-based imaging assay that monitors drug induced intracellular Ca^2+ release in whole cells. Activation of hM1 (human Muscarinic receptor subtype 1, gene bank access NM_000738), rM1 (rat Muscarinic receptor subtype 1, gene bank access NM_080773), hM3 (human Muscarinic receptor subtype 3, gene bank access NM_000740NM_000740) and hM5 (human Muscarinic receptor subtype 5, gene bank access NM_0121258), receptors expressed in CHO cells (Chinese hamster ovary cells, ATCC) is quantified in a Molecular Devices FLIPR II™ instrument as an increase in fluorescent signal. Inhibition of hM3 and hM5 by compounds is determined by the decrease in fluorescent signal in response to 2 nM acetylcholine activation.
(§2) Prior to experiment, the cell culture medium is removed from the plates by inversion. […] Plates are incubated at 37° C. for 60 minutes prior to start the experiment. The incubation is terminated by washing the cells four times in assay buffer, leaving a residual 25 μl buffer per well. Cell plates are then transferred to the FLIPR, ready for compound additions.
(§3) The day of experiment, acetylcholine and compounds are diluted in assay buffer in three-fold concentration range (10 points serial dilution) for addition by FLIPR instrument. For all calcium assays, a baseline reading is taken for 10 seconds followed by the addition of 12.5 μl of compounds, resulting in a total well volume of 37.5 μl. Data is collected every second for 60 pictures and then every 6 seconds for 20 pictures prior to the addition of agonist. For hM3 and hM5, before agonist addition, a second baseline reading is taken for 10 seconds followed by the addition of 12.5 μl of agonist or buffer, producing a final volume of 50 μl. After agonist stimulation, the FLIPR continues to collect data every second for 60 pictures and then every 6 seconds for 20 pictures. The fluorescence emission is read using filter 1 (emission 510-570 nm) by the FLIPR on board CCD camera.
(§4) Calcium mobilization output data are calculated as the maximal relative fluorescence unit (RFU) minus the minimal value for both compound and agonist reading frame (except for hM1 and rM1 using only the maximal RFU). Data are analyzed using sigmoidal fits of a non-linear curve-fitting program (XLfit version 4.2.2 Excel add-in version 4.2.2 build 18 math 1Q version 2.1.2 build 18). All pEC50 and pIC50 values are reported as arithmetic means±standard error of mean of ‘n’ independent experiments.

cloned human M2 receptor = target: T2, cloned human M2 receptor (Homo sapiens, UniProt P08172); assay: hM2 receptor GTPγS binding; assay type: biochemical; details: CHO membranes expressing hM2, [35S]GTPγS binding
T2 construct: purchased Perkin-Elmer RBHM2M; host or cells: CHO cell membranes
T2 sequence (P08172 1-466): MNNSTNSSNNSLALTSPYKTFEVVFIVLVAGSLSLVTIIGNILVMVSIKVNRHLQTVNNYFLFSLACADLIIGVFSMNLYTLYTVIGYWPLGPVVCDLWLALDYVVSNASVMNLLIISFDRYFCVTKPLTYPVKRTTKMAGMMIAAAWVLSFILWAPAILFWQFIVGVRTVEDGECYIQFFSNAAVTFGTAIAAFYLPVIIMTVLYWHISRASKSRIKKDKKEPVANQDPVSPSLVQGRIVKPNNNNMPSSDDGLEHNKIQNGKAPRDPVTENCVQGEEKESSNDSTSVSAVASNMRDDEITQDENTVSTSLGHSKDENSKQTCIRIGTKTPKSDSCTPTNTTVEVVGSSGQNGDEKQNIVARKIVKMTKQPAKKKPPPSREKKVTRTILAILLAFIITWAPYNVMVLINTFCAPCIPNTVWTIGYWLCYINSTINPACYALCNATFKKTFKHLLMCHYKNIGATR
Description: Membranes produced from Chinese hamster ovary cells (CHO) expressing the cloned human M2 receptor (human Muscarinic receptor subtype 2, gene bank access NM_000739), are obtained from Perkin-Elmer (RBHM2M). The membranes are thawed at 37° C., passed 3 times through a 23-gauge blunt-end needle, diluted in the GTPγS binding buffer (50 mM Hepes, 20 mM NaOH, 100 mM NaCl, 1 mM EDTA, 5 mM MgCl2, pH 7.4, 100 μM DTT). The EC50, IC50 and Emax of the compounds of the invention are evaluated from 10-point dose-response curves (three fold concentration range) done in 60 μl in 384-well non-specific binding surface plate (Corning). Ten microliters from the dose-response curves plate (5× concentration) are transferred to another 384 well plate containing 25 μl of the following: 5 μg of hM2 membranes, 500 μg of Flashblue beads (Perkin-Elmer) and GDP 25 μM. An additional 15 μl containing 3.3× (60,000 dpm) of GTPγ^35S (0.4 nM final) are added to the wells resulting in a total well volume of 50 μl. Basal and maximal stimulated [^35S]GTPγS binding are determined in absence and presence of 30 μM final of acetylcholine agonist. The membranes/beads mix are pre-incubated for 15 minutes at room temperature with 25 μM GDP prior to distribution in plates (12.5 μM final). The reversal of acetylcholine-induced stimulation (2 μM final) of [^35S]GTPγS binding is used to assay the antagonist properties (IC50) of the compounds. The plates are incubated for 60 minutes at room temperature then centrifuged at 400 rpm for 5 minutes. The radioactivity (cpm) is counted in a Trilux (Perkin-Elmer).
Values of EC50, IC50 and Emax are obtained using sigmoidal fits of a non-linear curve-fitting program (XLfit version 4.2.2 Excel add-in version 4.2.2 build 18 math 1Q version 2.1.2 build 18) of percent stimulated [^35S]GTPγS binding vs. log(molar ligand). All pEC50 and pIC50 values are reported as arithmetic means±standard error of mean of ‘n’ independent experiments.

[2] = target: T3, hM3 (human Muscarinic receptor subtype 3) (Homo sapiens, UniProt P20309); assay: Human M3 calcium mobilization FLIPR assay; assay type: cell-based; details: CHO cells expressing hM3, intracellular Ca2+ release
T3 construct: expressed in transfected cells; host or cells: CHO cells (Chinese hamster ovary cells, ATCC)
T3 sequence (P20309 whole entry): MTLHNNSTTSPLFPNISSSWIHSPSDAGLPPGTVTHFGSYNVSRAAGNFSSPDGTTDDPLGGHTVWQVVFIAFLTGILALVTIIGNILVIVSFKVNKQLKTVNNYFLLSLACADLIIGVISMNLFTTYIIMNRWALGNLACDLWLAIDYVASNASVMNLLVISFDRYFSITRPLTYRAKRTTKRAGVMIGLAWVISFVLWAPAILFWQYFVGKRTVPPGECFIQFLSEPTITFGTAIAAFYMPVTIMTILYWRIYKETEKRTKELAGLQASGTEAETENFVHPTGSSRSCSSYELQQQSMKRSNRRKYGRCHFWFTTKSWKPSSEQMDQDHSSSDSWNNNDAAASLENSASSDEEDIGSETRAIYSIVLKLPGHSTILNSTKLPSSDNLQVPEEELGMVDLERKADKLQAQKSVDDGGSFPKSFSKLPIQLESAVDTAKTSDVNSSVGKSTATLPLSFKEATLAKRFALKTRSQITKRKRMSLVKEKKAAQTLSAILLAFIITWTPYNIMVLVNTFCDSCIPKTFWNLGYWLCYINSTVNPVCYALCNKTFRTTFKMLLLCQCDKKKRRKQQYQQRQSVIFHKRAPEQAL
Description: as §1, §2, §3, §4

Row | SMILES | EC50 [1] | EC50 (cloned human M2 receptor) | EC50 [2]
1 | C#CCOC(=O)N1CCC(C)(N2CCC(N3C(=O)N[C@H]4CCCC[C@@H]43)CC2)CC1 [Example 17, prop-2-ynyl 4-[4-[(3aS,7aS)-2-oxo-3a,4,5,6,7,7a-hexahydro-3H-benzimidazol-1-yl]-1-piperidyl]-4-methyl-piperidine-1-carboxylate] | 1.5 nM | 48 nM | –
2 | CCOC(=O)N1CCC(C)(N2CCC(N3C(=O)N[C@H]4CCCC[C@@H]43)CC2)C1 (single isomer, unassigned) [Example 22] | 3 nM | 1170 nM | > 25600 nM
3 | CC(C)OC(=O)N1CCC(C)(N2CCC(N3C(=O)N[C@H]4CCCC[C@@H]43)CC2)CC1 [Example 02, Propan-2-yl 4-[4-[(3aS,7aS)-2-oxo-3a,4,5,6,7,7a-hexahydro-3H-benzoimidazol-1-yl]-1-piperidyl]-4-methyl-piperidine-1-carboxylate] | 4.4 nM | > 200 nM | > 40000 nM
4 | CC1(N2CCC(N3C(=O)C[C@H]4CCCC[C@@H]43)CC2)CCN(C(=O)C2CC2)CC1 [Example 15, (3aR,7aS)-1-[1-[1-(cyclopropanecarbonyl)-4-methyl-4-piperidyl]-4-piperidyl]-3a,4,5,6,7,7a-hexahydro-3H-indol-2-one] | 36 nM | > 15000 nM | > 40000 nM
5 | CC(C)OC(=O)N1CCC(C)(N2CCC(N3C(=O)N[C@@H]4CCCC[C@@H]43)CC2)CC1 (relative stereo) [Example 13, Propan-2-yl 4-[4-[(cis)-2-oxo-3a,4,5,6,7,7a-hexahydro-3H-benzoimidazol-1-yl]-1-piperidyl]-4-methyl-piperidine-1-carboxylate] | 54 nM | > 30000 nM | > 40000 nM
6 | CC(C)OC(=O)N1CCC(C)(N2CCC(N3C(=O)C[C@H]4CCCC[C@@H]43)CC2)CC1 [Example 14, Propan-2-yl 4-[4-[(3aR,7aS)-2-oxo-3a,4,5,6,7,7a-hexahydro-3H-indol-1-yl]-1-piperidyl]-4-methyl-piperidine-1-carboxylate] | 19 nM | > 30000 nM | > 40000 nM
7 | CCOC(=O)N1CCC(C)(N2CCC(N3C(=O)N[C@H]4CCCC[C@@H]43)CC2)C1 (mixture of isomers) [Example 07, Ethyl 3-[4-[(3aS,7aS)-2-oxo-3a,4,5,6,7,7a-hexahydro-3H-benzoimidazol-1-yl]-1-piperidyl]-3-methyl-pyrrolidine-1-carboxylate] | 14 nM | 2300 nM | > 40000 nM
8 | CCOC(=O)N1CCC(C)(N2CCC(N3C(=O)C[C@@H]4CCCC[C@H]43)CC2)C1 (stereo in doubt) [Example 23, Ethyl 3-[4-[(3aS,7aR)-2-oxo-3a,4,5,6,7,7a-hexahydro-3H-indol-1-yl]-1-piperidyl]-3-methyl-pyrrolidine-1-carboxylate] | 22 nM | 2680 nM | > 120000 nM
9 | CCOC(=O)N1CCC(C)(N2CCC(N3C(=O)N[C@@H]4CCCC[C@@H]43)CC2)CC1 (relative stereo) [Example 12, Ethyl 4-[4-[(cis)-2-oxo-3a,4,5,6,7,7a-hexahydro-3H-benzoimidazol-1-yl]-1-piperidyl]-4-methyl-piperidine-1-carboxylate] | 11 nM | 130 nM | > 40000 nM
10 | C#CCOC(=O)N1CCC(C)(N2CCC(N3C(=O)N[C@H]4CCCC[C@@H]43)CC2)C1 (mixture of isomers) [Example 09, Prop-2-ynyl 3-[4-[(3aS,7aS)-2-oxo-3a,4,5,6,7,7a-hexahydro-3H-benzoimidazol-1-yl]-1-piperidyl]-3-methyl-pyrrolidine-1-carboxylate] | < 3.6 nM | > 1000 nM | > 40000 nM
11 | CCOC(=O)N1CCC(C)(N2CCC(N3C(=O)N[C@@H]4CCCC[C@H]43)CC2)CC1 [Example 04, Ethyl 4-[4-[(3aR,7aR)-2-oxo-3a,4,5,6,7,7a-hexahydro-3H-benzoimidazol-1-yl]-1-piperidyl]-4-methyl-piperidine-1-carboxylate] | 3.3 nM | 480 nM | > 4200 nM
12 | COC(=O)N1CCC(C)(N2CCC(N3C(=O)N[C@H]4CCCC[C@@H]43)CC2)C1 (mixture of isomers) [Example 10, Methyl 3-[4-[(3aS,7aS)-2-oxo-3a,4,5,6,7,7a-hexahydro-3H-benzoimidazol-1-yl]-1-piperidyl]-3-methyl-pyrrolidine-1-carboxylate] | 69 nM | > 4000 nM | –
13 | CC#CCOC(=O)N1CCC(C)(N2CCC(N3C(=O)N[C@H]4CCCC[C@@H]43)CC2)C1 (single isomer, unassigned) [Example 19] | 4.9 nM | 204 nM | –
14 | CC1(N2CCC(N3C(=O)N[C@H]4CCCC[C@@H]43)CC2)CCN(C(=O)OCCF)C1 (mixture of isomers) [Example 08, 2-fluoroethyl 3-[4-[(3aS,7aS)-2-oxo-3a,4,5,6,7,7a-hexahydro-3H-benzoimidazol-1-yl]-1-piperidyl]-3-methyl-pyrrolidine-1-carboxylate] | 69 nM | > 15000 nM | –
15 | CCOC(=O)N1CCC(C)(N2CCC(N3C(=O)N[C@@H]4CCCC[C@H]43)CC2)C1 (mixture of isomers) [Example 11, Ethyl 3-[4-[(3aR,7aR)-2-oxo-3a,4,5,6,7,7a-hexahydro-3H-benzoimidazol-1-yl]-1-piperidyl]-3-methyl-pyrrolidine-1-carboxylate] | 55 nM | 2900 nM | –
